Measured values: patent US7704490B2 (Institut Pasteur, priority 1998, dated 2010)
“Also recorded” adds a separate entry of the source. No end group written: not given here.

Assays:
IL-2R = assay: Affinity of IL-2 mutant for IL-2R; type: binding; settings: compared with IL-2
TS1β cells = assay: TS1β proliferation assay, activity of peptides and IL-2 muteins; type: cell-based, murine; settings: for proliferation of TS1β induced by the peptide: in the absence of IL-2
Protocol: Background of 1.4×10^3 cpm was subtracted. […] TS1β target cells are derived from TS1 murine cells (which only express murine IL-2Rγ), after transfection with the human IL-2Rβ gene.
The response to. IL-2 or peptide alone was substracted from that obtained from both IL-2 and peptide.
The biological activity of IL2 mutant Asp 20→Lys (□) is shown for comparison
TS1β cells were cultured (10^4 cells/well) in 96 wells in flat-bottomed microtiter plates with a final volume of 0.2 ml. […] In order to test the inhibitory effect of mAbs, different concentrations of these reagents were mixed in the culture wells with the respective lymphokines for 30 min at low temperature before adding the cells. […] Cultures were pulsed with 0.5 μCi/well of (3H) TdR after 36 h of incubation and harvested 15 h later.

mAb 19B11 = assay: ELISA inhibition of mAb 19B11 binding to IL-2 coated plates; parameters: species or system mouse; settings: control mAb
[1] = system: classical murine cell lines (C30-1, CTLL, HT-2, . . . ); assay: IP130 effects on classical murine IL-2 assay cell lines; type: cell-based; settings: cells without human IL-2Rβ
From the text: IP130 acts only on cell lines expressing human IL-2Rβ. […] Furthermore anti-human IL-2Rβ blocking mAb neutralizes the effects of IP130.

[2] = Sedimentation-diffusion equilibrium, quaternary structure; type: physicochemical; settings: concentration above 5×10^−6M
From the text: The quaternary structure of peptide IP130 was also studied by sedimentation-diffusion equilibrium.

mAb H2-8 = assay: ELISA inhibition of mAb H2-8 binding to IL-2 coated plates; parameters: species or system mouse; settings: mAb at about 50% of maximum binding, preincubated with inhibitor
Protocol: Control is represented by non coated plates.
H2-8 was preincubated with different peptides including five decapeptides (1-10, 5-15, 10-20, 15-25, 20-30).

[3] = system: K562 or Daudi target cells; assay: Induction of LAK cells, 51Cr release lysis; type: cell-based, human; settings: for induction of LAK cells: PBMCs stimulated 3 or 6 days, lysis of K562 and Daudi targets
Protocol: K562 or Daudi target cells (5×103 in 0.1 ml) labeled with Na2^51CrO4 (Amersham Pharmacia Biotech) were mixed in round-bottomed microwells with an equal volume of effector cells at various E/T ratios. After 4 hours of incubation at 37° C., the plates were centrifuged at 2,000 g for 2 min, and cell-free supernatant were collected using a Luma Plate 96 cell harvester (Lulac-LSC). Supernatant radioactivity was assayed using an automated MicroBeta 1450 trilux γ-counter (Wallac). Spontaneous release was determined by incubating target cells in medium alone. Maximum release was determined by adding 0.1 ml of 1M HCl to the target cell suspension. The percentage of specific lysis was calculated as follows: 100×(experimental ^51Cr release−spontaneous release)/(maximum ^51Cr release−spontaneous ^51Cr release).

Kit 225 cell line = assay: Protein phosphorylation and c-myc induction in Kit 225 cell line; type: cell-based, human
From the text: IP130 induces SHC protein phosphorylation. […] Kinetics of Shc phosphorylation is shown on the left. A Western blot of Shc protein is shown on the right.
Alone the peptide induces the phosphorylation of proteins on Kit 225 cell line. […] STAT-3 and STAT-5 are not activated after IP130 stimulation since IL-2Rγ is not involved in IP130 interaction with Kit 225.

IFN-γ production = assay: IFN-γ production; type: cell-based
STAT = assay: Electrophoretic mobility shift assay of STAT activation in KIT225 nuclear extracts; type: cell-based, human; settings: STAT-3 and STAT-5; β-casein, GAS and GIRE probes
NK cells = assay: Cell cycle entry (S+G2/M) of NK cells in stimulated PBMC; type: cell-based, human
Protocol: Non-specific responses (J+1 in medium) are subtracted. NK cells entry into S+G2/M phases are measured by propidium iodide and analyzed with the ModFit 2.0 software (Becton Dickinson).

TS1 cells = assay: IP130 proliferation of TS1 cells with or without human IL-2Rβ; type: cell-based, murine; settings: with or without transfection by human IL-2Rβ gene
[4] = Circular dichroism, α helix content; type: physicochemical; settings: for α-helix content: isolated peptide, circular dichroism
IL-2Rβ = target: T1, IL-2Rβ (Homo sapiens, UniProt P14784); settings: cited from earlier work
T1 sequence (P14784 27-551): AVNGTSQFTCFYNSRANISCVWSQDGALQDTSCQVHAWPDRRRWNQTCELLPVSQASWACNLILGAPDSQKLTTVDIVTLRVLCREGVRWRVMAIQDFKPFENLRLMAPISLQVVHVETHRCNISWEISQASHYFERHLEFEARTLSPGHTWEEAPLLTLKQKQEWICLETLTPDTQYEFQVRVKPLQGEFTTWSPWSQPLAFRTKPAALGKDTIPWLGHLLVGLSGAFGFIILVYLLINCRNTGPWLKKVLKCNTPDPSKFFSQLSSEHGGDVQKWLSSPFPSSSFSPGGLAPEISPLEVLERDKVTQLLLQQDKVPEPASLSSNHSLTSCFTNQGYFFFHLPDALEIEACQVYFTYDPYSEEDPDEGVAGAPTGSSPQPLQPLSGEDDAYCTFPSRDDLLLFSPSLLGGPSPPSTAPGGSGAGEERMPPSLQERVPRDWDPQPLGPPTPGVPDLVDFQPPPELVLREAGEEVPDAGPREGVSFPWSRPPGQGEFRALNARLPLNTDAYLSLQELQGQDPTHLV

IL-2 Pro125: IL-2 mutant IL-2 Pro125 (Cys→Pro) [reference compound]
affinity for IL-2R (IL-2R): slightly reduces the affinity
maximum proliferation of TS1β (TS1β cells; higher concentrations of mutant): without affecting the maximum proliferation

peptide 1-10: synthetic IL-2 decapeptide, residues 1-10 (APTSSSTKKT-NH2; UniProt P60568 21-30, looked up, fragment)
inhibition of the binding of mAb 19B11 to IL-2 (mAb 19B11): inhibited

APTSSSTKKTQLQLEHLLLDLQMILNGINN [IP130]
sensitivity of classical murine cell lines to the peptide [1]: insensitive
quaternary structure [2]: most of the molecules are in a tetrameric form
inhibition of the binding of mAb H2-8 to IL-2 (mAb H2-8): most efficient inhibitor
induction of LAK cells [3]: able to induce LAK cells in a concentration dependent manner; also recorded: potent LAK cell response
LAK response compared with IL-2, day 3 ([3]; day 3): weaker than that of IL-2
LAK response compared with IL-2, day 6 ([3]; day 6): comparable
c-myc induction (Kit 225 cell line): observed
phosphorylation of IL-2Rβ (Kit 225 cell line; immunoprecipitation, blotting with mAb 4G10 (anti-Ptyr)): phosphorylated IL-2Rβ is identified
phosphorylation of Shc (Kit 225 cell line; peptide alone): the kinase Shc is easily recognized; also recorded: phosphorylated after a ten minute stimulation
induction of IFN-γ production (IFN-γ production): ability to induce LAK cells and IFNγ production
STAT activation (STAT): not activated; also recorded: does not induce STAT activity
inhibition of the binding of mAb 19B11 to IL-2 (mAb 19B11): inhibited
entry of NK cells into the cell cycle (NK cells): induces NK cells to enter into the cell cycle
proliferation of TS1 cells in the presence of IP130 (TS1 cells): TS1 cells only proliferate after transfection by the human IL-2Rβ gene
residues in an α helix configuration ([4]; 20° C., phosphate buffer (20 mM, pH 7.2)): 50%
α-helix content [4]: 50%±7%
IC-50 of proliferation and of synergy with IL-2 (TS1β cells; both activities at comparable concentrations): IC-50≅μM
proliferation of TS1β induced by the peptide (TS1β cells): stimulates the proliferation
synergy with IL-2 on TS1β proliferation (TS1β cells; in the presence of IL-2): strong synergy

peptide 1-22: synthetic IL-2 peptide, residues 1-22 (APTSSSTKKTQLQLEHLLLDLQ; UniProt P60568 21-42, looked up, fragment)
inhibition of the binding of mAb 19B11 to IL-2 (mAb 19B11): inhibited
α-helix content [4]: 13%±5%

IP131 Asp 20→Lys: Peptide 1-31 mutated at position 20 (Asp→Lys), SEQ ID NO:8 (APTSSSTKKTQLQLEHLLLKLQMILNGINNY)
induction of LAK cells [3]: capacity to generate LAK cells
induction of IFN-γ production (IFN-γ production): induce IFN-γ production
proliferation of TS1β induced by the peptide (TS1β cells): maintains its inductive capacity on proliferation

IL2 Asp 20→Lys mutant: IL-2 with substitution Asp20 by Lys [reference compound]
binding to IL-2Rβ (IL-2Rβ): prevents binding to IL-2Rβ
biological activity on Ts1β cells (TS1β cells; 5×10-3 to 10 nM, compared with IL-2 (FIG. 18)): clearly reduced
